Assay results published in the supplement of paper PMC9663587.

How the values were obtained:
[1] = compound: CCN1CCN(Cc2ccc(Nc3ncc(F)c(-c4cc(F)c5nc(C)n(C(C)C)c5c4)n3)nc2)CC1; test: increase in dead-cell fraction, 72 h; higher = more death;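 note: breast cancer cell lines in 384-well plates, stained with Hoechst plus LIVE/DEAD far red dye and imaged, cells above an LDR intensity threshold counted dead, Hoechst-negative corpses included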
[2] = compound: T1, CN1CC[C@H](c2c(O)cc(O)c3c(=O)cc(-c4ccccc4Cl)oc23)[C@H](O)C1 [Flavopiridol]; test: as above
[3] = compound: CN(C)C(=O)c1cc2cnc(Nc3ccc(N4CCNCC4)cn3)nc2n1C1CCCC1 [LEE011/Ribociclib]; test: as above
[4] = compound: CCc1cnn2c(NCc3ccc[n+]([O-])c3)cc(N3CCCC[C@H]3CCO)nc12; test: as above
[5] = compound: CC(=O)c1c(C)c2cnc(Nc3ccc(N4CCN(CCOCCOCCOCCNC(=O)COc5cccc6c5C(=O)N(C5CCC(=O)NC5=O)C6=O)CC4)cn3)nc2n(C2CCCC2)c1=O [BSJ-03-123]; test: as above
[6] = compound: CCOc1cc2ncc(C#N)c(Nc3ccc(OCc4ccccn4)c(Cl)c3)c2cc1NC(=O)/C=C/CN(C)C [Neratinib/HKI272]; test: as above
[7] = compound: T2, CN(C)C/C=C/C(=O)Nc1ccc(C(=O)Nc2cccc(Nc3ncc(Cl)c(-c4c[nH]c5ccccc45)n3)c2)cc1 [THZ1]; test: as above
[8] = compound: CC(=O)c1c(C)c2cnc(Nc3ccc(N4CCNCC4)cn3)nc2n(C2CCCC2)c1=O; test: as above
[9] = compound: T1, Flavopiridol; test: GR value, 72 h; higher = faster growth (1 = untreated, <0 = killing);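 note: breast cancer and non-malignant breast epithelial lines, nine half-log doses, viable cells counted by Hoechst and LIVE/DEAD dye imaging versus time-zero plates and DMSO controls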
[10] = compound: T2, THZ1; test: as above
[11] = compound: CC(=O)c1c(C)c2cnc(Nc3ccc(N4CCNCC4)cn3)nc2n(C2CCCC2)c1=O; test: as above
[12] = compound: CN(C)C/C=C/C(=O)Nc1ccc(C(=O)N2CCC[C@@H](Nc3ncc(Cl)c(-c4c[nH]c5ccccc45)n3)C2)cc1 [THZ531]; test: as above

UACC893
increase in dead-cell fraction ([1]; 0.001 µM): -0.001
increase in dead-cell fraction ([1]; 0.003162 µM): 0.0022
increase in dead-cell fraction ([1]; 0.01 µM): 0.0063
increase in dead-cell fraction ([1]; 0.03162 µM): 0.0037
increase in dead-cell fraction ([1]; 0.1 µM): 0.0039
increase in dead-cell fraction ([1]; 0.3162 µM): 0.0024
increase in dead-cell fraction ([1]; 1 µM): 0.0009
increase in dead-cell fraction ([1]; 3.162 µM): -0.0005
increase in dead-cell fraction ([1]; 10 µM): 0.0324
increase in dead-cell fraction ([2]; 0.0001 µM): -0.0013
increase in dead-cell fraction ([2]; 0.0003162 µM): -0.0009
increase in dead-cell fraction ([2]; 0.001 µM): 0.0052
increase in dead-cell fraction ([2]; 0.003162 µM): -0.0042
increase in dead-cell fraction ([2]; 0.01 µM): -0.0006
increase in dead-cell fraction ([2]; 0.03162 µM): 0.0011
increase in dead-cell fraction ([2]; 0.1 µM): 0.0012
increase in dead-cell fraction ([2]; 0.3162 µM): 0.013
increase in dead-cell fraction ([2]; 1 µM): 0.132
increase in dead-cell fraction ([3]; 0.001 µM): -0.0008
increase in dead-cell fraction ([3]; 0.003162 µM): -0.0005
increase in dead-cell fraction ([3]; 0.01 µM): 0.0034
increase in dead-cell fraction ([3]; 0.03162 µM): 0.0015
increase in dead-cell fraction ([3]; 0.1 µM): 0.0055
increase in dead-cell fraction ([3]; 0.3162 µM): 0.0017
increase in dead-cell fraction ([3]; 1 µM): 0.0062
increase in dead-cell fraction ([3]; 3.162 µM): 0.0013
increase in dead-cell fraction ([3]; 10 µM): 0.0077
increase in dead-cell fraction ([4]; 0.0001 µM): -0.0009
increase in dead-cell fraction ([4]; 0.0003162 µM): 0.0014
increase in dead-cell fraction ([4]; 0.001 µM): -0.005
increase in dead-cell fraction ([4]; 0.003162 µM): -0.0023
increase in dead-cell fraction ([4]; 0.01 µM): 0.0014
increase in dead-cell fraction ([4]; 0.03162 µM): 0.0697
increase in dead-cell fraction ([4]; 0.1 µM): 0.123
increase in dead-cell fraction ([4]; 0.3162 µM): 0.166
increase in dead-cell fraction ([4]; 1 µM): 0.169
increase in dead-cell fraction ([5]; 0.001 µM): -0.0061
increase in dead-cell fraction ([5]; 0.003162 µM): 0.0019
increase in dead-cell fraction ([5]; 0.01 µM): 0.0038
increase in dead-cell fraction ([5]; 0.03162 µM): -0.0027
increase in dead-cell fraction ([5]; 0.1 µM): 0.0026
increase in dead-cell fraction ([5]; 0.3162 µM): 0.0022
increase in dead-cell fraction ([5]; 1 µM): 0.0012
increase in dead-cell fraction ([5]; 3.162 µM): -0.0003
increase in dead-cell fraction ([5]; 10 µM): 0.0009
increase in dead-cell fraction ([6]; 0.0003162 µM): -0.0043
increase in dead-cell fraction ([6]; 0.001 µM): -0.0037
increase in dead-cell fraction ([6]; 0.003162 µM): 0.0271
increase in dead-cell fraction ([6]; 0.01 µM): 0.0964
increase in dead-cell fraction ([6]; 0.03162 µM): 0.113
increase in dead-cell fraction ([6]; 0.1 µM): 0.187
increase in dead-cell fraction ([6]; 0.3162 µM): 0.21
increase in dead-cell fraction ([6]; 1 µM): 0.299
increase in dead-cell fraction ([6]; 3.162 µM): 0.417
increase in dead-cell fraction ([7]; 0.0001 µM): -0.0022
increase in dead-cell fraction ([7]; 0.0003162 µM): -0.0022
increase in dead-cell fraction ([7]; 0.001 µM): 0.0023
increase in dead-cell fraction ([7]; 0.003162 µM): -0.0026
increase in dead-cell fraction ([7]; 0.01 µM): -0.0007
increase in dead-cell fraction ([7]; 0.03162 µM): 0.0317
increase in dead-cell fraction ([7]; 0.1 µM): 0.0774
increase in dead-cell fraction ([7]; 0.3162 µM): 0.0967
increase in dead-cell fraction ([7]; 1 µM): 0.134
increase in dead-cell fraction ([8]; 0.0003162 µM): -0.0005
increase in dead-cell fraction ([8]; 0.001 µM): 0.0008
increase in dead-cell fraction ([8]; 0.003162 µM): -0.0028
increase in dead-cell fraction ([8]; 0.01 µM): 0.0018
increase in dead-cell fraction ([8]; 0.03162 µM): 0.006
increase in dead-cell fraction ([8]; 0.1 µM): 0.0063
increase in dead-cell fraction ([8]; 0.3162 µM): 0.0087
increase in dead-cell fraction ([8]; 1 µM): 0.0064
increase in dead-cell fraction ([8]; 3.162 µM): 0.0017
GR value ([9]; 0.0001 µM): 1.02 GR
GR value ([9]; 0.0003162 µM): 0.977 GR
GR value ([9]; 0.001 µM): 0.945 GR
GR value ([9]; 0.003162 µM): 0.821 GR
GR value ([9]; 0.01 µM): 0.866 GR
GR value ([9]; 0.03162 µM): 0.822 GR
GR value ([9]; 0.1 µM): 0.609 GR
GR value ([9]; 0.3162 µM): 0.0303 GR
GR value ([9]; 1 µM): -0.465 GR
GR value ([10]; 0.0001 µM): 0.991 GR
GR value ([10]; 0.0003162 µM): 1.12 GR
GR value ([10]; 0.001 µM): 1.07 GR
GR value ([10]; 0.003162 µM): 0.882 GR
GR value ([10]; 0.01 µM): 0.669 GR
GR value ([10]; 0.03162 µM): 0.149 GR
GR value ([10]; 0.1 µM): -0.241 GR
GR value ([10]; 0.3162 µM): -0.397 GR
GR value ([10]; 1 µM): -0.517 GR
GR value ([11]; 0.0003162 µM): 0.92 GR
GR value ([11]; 0.001 µM): 0.914 GR
GR value ([11]; 0.003162 µM): 0.79 GR
GR value ([11]; 0.01 µM): 0.671 GR
GR value ([11]; 0.03162 µM): 0.422 GR
GR value ([11]; 0.1 µM): 0.406 GR
GR value ([11]; 0.3162 µM): 0.366 GR
GR value ([11]; 1 µM): 0.358 GR
GR value ([11]; 3.162 µM): 0.355 GR
GR value ([12]; 0.0001 µM): 1.05 GR
GR value ([12]; 0.0003162 µM): 1.05 GR
GR value ([12]; 0.001 µM): 0.907 GR
GR value ([12]; 0.003162 µM): 1.06 GR
GR value ([12]; 0.01 µM): 1.08 GR
GR value ([12]; 0.03162 µM): 0.743 GR
GR value ([12]; 0.1 µM): -0.298 GR
GR value ([12]; 0.3162 µM): -0.396 GR
GR value ([12]; 1 µM): -0.421 GR
